Molecules are shown by their SMILES. pIC50: −log10 of the molar value. Structures can show the parent of a compound that is named as a salt.

In the first experiment the test system is up-regulation of ICAM-1 (CD54) by IFNγ in A549 lung epithelial cells. Description: A549 Epithelial Line Stimulated with IFNγ (ICAM-1 surface expression, FACS). The class given is cell-based, human. To be noted: A549 cells stimulated with IFNγ, ICAM-1 expression by FACS; read-out: IC50, Example 43. In outline: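 A549 cells pre-incubated 1 h with compound (30 μM to 14 nM, 5% FBS, 0.3% DMSO), then stimulated with IFNγ (75 ng/mL) for 24 h. Surface ICAM-1 stained with APC anti-CD54 and read by flow cytometry; geometric mean of live-gated events plotted against concentration for EC50.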
A general note: In flow cytometry, cells or beads pass a laser one at a time.
`COc1ccc(CN2C(=O)C(C)Oc3ccc(Nc4nc(Nc5ccc(S(N)(=O)=O)cc5)ncc4F)cc32)cc1` (racemic) [Compound V-4, Racemic N2-(4-Aminosulphonylphenyl)-5-fluoro-N4-[2-methyl-3-oxo-4-(4-methoxybenzyl)-benz[1,4]oxazin-6-yl]-2,4-pyrimidinediamine]: the pIC50 is 5.03.

Turning to `Cc1noc(CCc2ccc(Nc3nc(Nc4cccc(S(N)(=O)=O)c4)ncc3F)cc2)n1` [III-106, N2-(3-Aminosulfonylphenyl)-5-fluoro-N4-[4-(3-methyl-1,2,4-oxadiazol-5-yl)ethylenephenyl]-2,4-pyrimidinediamine], the pIC50 is 5.23.

On to `NS(=O)(=O)c1cccc(Nc2ncc(F)c(Nc3ccc(Cc4ccncc4)cc3)n2)c1` [III-129, N2-(3-Aminosulfonylphenyl)-5-fluoro-N4-[4-(4-pyridylmethyl)phenyl]-2,4-pyrimidinediamine Methanesulfonic Acid Salt], for which the pIC50 was 4.50.

Still in this experiment, the particulars now being: Homo sapiens, A549, A549 cells stimulated with IFNγ, ICAM-1 expression by FACS; read-out: IC50, Example 43.
For `Cc1cc2ccc(CNc3nc(Nc4cccc(S(N)(=O)=O)c4)ncc3F)cc2[nH]1` [Compound X-3], the pIC50 is 5.30.

The same experiment, now with this note: Homo sapiens, A549, A549 epithelial line stimulated with IFNγ; ICAM-1 expression by FACS; read-out: IC50, Example 43.
As for `COc1cc(Nc2nc(Nc3ccc(S(N)(=O)=O)cc3)ncc2F)cc(OCC#N)c1OC` [Compound I-1, N2-(4-Aminosulphonylphenyl)-N4-(3-cyanomethoxy-4,5-dimethoxyphenyl)-5-fluoro-2,4-pyrimidinediamine], the pIC50 is 4.73.

`COc1cc(Nc2nc(Nc3ccc(S(N)(=O)=O)cc3)ncc2F)ccc1OCC#N` [Compound I-45, N2-(4-Aminosulfonylphenyl)-N4-(4-cyanomethoxy-3-methoxyphenyl)-5-fluoro-2,4-pyrimidinediamine]: the pIC50 was 4.77.

On to `COc1ccc(Nc2ncc(F)c(Nc3ccc(OCC#N)cc3)n2)cc1S(N)(=O)=O` [Compound I-56, N2-(3-Aminosulfonyl-4-methoxyphenyl)-N4-(4-cyanomethoxyphenyl)-5-fluoro-2,4-pyrimidinediamine], for which the pIC50 is 5.30.

As for `Cc1cnc(Nc2cccc(S(N)(=O)=O)c2)nc1Nc1ccc(OCC#N)cc1` [Compound I-58, N2-(3-Aminosulfonylphenyl)-N4-(4-cyanomethoxyphenyl)-5-methyl-2,4-pyrimidinediamine], the pIC50 was 6.14.

`Cc1ccc(Nc2ncc(C)c(Nc3ccc(OCC#N)cc3)n2)cc1S(N)(=O)=O` [Compound I-59, N2-(3-Aminosulfonyl-4-methylphenyl)-N4-(4-cyanomethoxyphenyl)-5-methyl-2,4-pyrimidinediamine]: the pIC50 is 6.02.

Turning to `NC(=O)COc1ccc(Nc2nc(Nc3ccc(S(N)(=O)=O)cc3)ncc2F)cc1Cl` [Compound I-97, N4-(4-Aminocarbonylmethoxy-3-chlorophenyl)-N2-(4-aminosulfonylphenyl)-5-fluoro-2,4-pyrimidinediamine], the pIC50 is 4.51.

Regarding `NC(=O)COc1ccc(Nc2nc(Nc3cccc(S(N)(=O)=O)c3)ncc2F)cc1Cl` [Compound I-98, N4-(4-Aminocarbonylmethoxy-3-chlorophenyl)-N2-(3-aminosulfonylphenyl)-5-fluoro-2,4-pyrimidinediamine], the pIC50 is 4.43.

On to `NC(=O)COc1ccc(Nc2nc(Nc3cccc(S(N)(=O)=O)c3)ncc2F)cc1F` [Compound I-101, N4-(4-Aminocarbonylmethoxy-3-fluorophenyl)-N2-(3-aminosulfonylphenyl)-5-fluoro-2,4-pyrimidinediamine], for which the pIC50 was 4.29.

In the case of `Cc1ccc(Nc2ncc(F)c(Nc3ccc(OCC(N)=O)c(F)c3)n2)cc1S(N)(=O)=O` [Compound I-102, N4-(4-Aminocarbonylmethoxy-3-fluorophenyl)-N2-(3-aminosulfonyl-4-methylphenyl)-5-fluoro-2,4-pyrimidinediamine], the pIC50 is 4.36.

With `Cc1cnc(Nc2cccc(S(N)(=O)=O)c2)nc1Nc1ccc(OCC(N)=O)cc1` [Compound I-109, N4-(4-Aminocarbonylmethoxyphenyl)-N2-(3-aminosulfonylphenyl)-5-methyl-2,4-pyrimidinediamine], the negative-log IC50 (pIC50) is 4.59.

On to `Cc1ccc(Nc2ncc(C)c(Nc3ccc(OCC(N)=O)cc3)n2)cc1S(N)(=O)=O` [Compound I-110, N4-(4-Aminocarbonylmethoxyphenyl)-N2-(3-aminosulfonyl-4-methylphenyl)-5-methyl-2,4-pyrimidinediamine], for which the pIC50 is 4.69.

With `Cc1cnc(Nc2cccc(S(N)(=O)=O)c2)nc1Nc1ccc(OCC(=O)N(C)C)c(Cl)c1` [Compound I-135, N2-(3-Aminosulfonylphenyl)-N4-(3-chloro-4-dimethylaminocarbonylmethoxyphenyl)-5-methyl-2,4-pyrimidinediamine], the pIC50 is 5.49.

Take `Cc1ccc(Nc2ncc(C)c(Nc3ccc(OCC(=O)N(C)C)c(Cl)c3)n2)cc1S(N)(=O)=O` [Compound I-136, N2-(3-Aminosulfonyl-4-methylphenyl)-N4-(3-chloro-4-dimethylaminocarbonylmethoxyphenyl)-5-methyl-2,4-pyrimidinediamine]: the negative logarithm of the IC50 (pIC50) was 5.09.

Turning to `Cc1cnc(Nc2cccc(S(N)(=O)=O)c2)nc1Nc1ccc(OCC(=O)N(C)C)c(F)c1` [Compound I-138, N2-(3-Aminosulfonylphenyl)-N4-(4-dimethylaminocarbonylmethoxy-3-fluorophenyl)-5-methyl-2,4-pyrimidinediamine], the pIC50 was 4.04.

As to `Cc1ccc(Nc2ncc(C)c(Nc3ccc(OCC(=O)N(C)C)c(F)c3)n2)cc1S(N)(=O)=O` [Compound I-139, N2-(3-Aminosulfonyl-4-methylphenyl)-N4-(4-dimethylaminocarbonylmethoxy-3-fluorophenyl)-5-methyl-2,4-pyrimidinediamine], the pIC50 is 4.94.

`Cc1cnc(Nc2ccc(Cl)c(S(N)(=O)=O)c2)nc1Nc1ccc(OCC(=O)N(C)C)c(Cl)c1` [Compound I-141, N2-(3-Aminosulfonyl-4-chlorophenyl)-N4-(3-chloro-4-dimethylaminocarbonylmethoxyphenyl)-5-methyl-2,4-pyrimidinediamine]: the pIC50 is 4.81.

For `Cc1ccc(Nc2nc(Nc3cccc(S(N)(=O)=O)c3)ncc2F)cc1OCCN1CCOCC1` [Compound I-203, N2-(3-Aminosulfonylphenyl)-5-fluoro-N4-[4-methyl-3-(2-morpholinoethyloxy)phenyl]-2,4-pyrimidinediamine], the pIC50 was 5.24.

Turning to `NS(=O)(=O)c1ccc(Nc2ncc(F)c(Nc3ccc(OCCN4CCOCC4)cc3)n2)cc1` [Compound I-205, N2-(4-Aminosulfonylphenyl)-5-fluoro-N4-[4-(2-morpholinoethyloxy)phenyl)-2,4-pyrimidinediamine], the pIC50 is 5.02.

As to `Cc1cc(COc2ccc(Nc3nc(Nc4cccc(S(N)(=O)=O)c4)ncc3F)cc2)no1` [Compound I-230, N2-(3-Aminosulfonylphenyl)-5-fluoro-N4-[4-(5-methylisoxazol-3-yl)methyleneoxyphenyl]-2,4-pyrimidinediamine], the pIC50 is 4.98.

For the molecule `Cc1cc(COc2ccc(Nc3nc(Nc4cccc(S(=O)(=O)NCc5oc(=O)oc5C)c4)ncc3F)cc2)no1` [Compound I-247, N2-{3-[(N-5-Methyl-1,3-dioxolene-2-one-4-yl)methylene]aminosulfonylphenyl}-5-fluoro-N4-[4-(5-methylisoxazol-3-yl)methyleneoxyphenyl]-2,4-pyrimidinediamine], the pIC50 was 4.95.

As to `Cc1ccc(Nc2ncc(F)c(Nc3ccc(Oc4cccnc4)cc3)n2)cc1S(N)(=O)=O` [II-12, N2-(3-Aminosulfonyl-4-methylphenyl)-5-fluoro-N4-[4-(3-pyridyloxy)phenyl]-2,4-pyrimidinediamine], the pIC50 is 5.26.

Regarding `Cc1cnc(Nc2ccc(Cl)c(S(N)(=O)=O)c2)nc1Nc1ccc(CCC#N)cc1` [III-12, N2-(3-Aminosulfonyl-4-chlorophenyl)-N4-[4-(2-cyanoethyl)phenyl]-5-methyl-2,4-pyrimidinediamine], the pIC50 was 5.45.

With `Cc1cc(Nc2nc(Nc3ccc(C)c(S(N)(=O)=O)c3)ncc2F)ccc1CCC#N` [III-19, N2-(3-Aminosulfonyl-4-methylphenyl)-N4-[4-(2-cyanoethyl)-3-methylphenyl]-5-fluoro-2,4-pyrimidinediamine], the pIC50 is 4.66.

In the case of `Cc1cc(Nc2nc(Nc3cccc(S(N)(=O)=O)c3)ncc2F)ccc1CCC#N` [III-20, N2-(3-Aminosulfonylphenyl)-N4-[4-(2-cyanoethyl)-3-methylphenyl]-5-fluoro-2,4-pyrimidinediamine], the pIC50 was 5.18.

Consider `CN(C)C(=O)OCCc1ccc(Nc2nc(Nc3cccc(S(N)(=O)=O)c3)ncc2F)cc1` [III-57, N2-(3-Aminosulfonylphenyl)-N4-{4-[2-(dimethylaminocarbonyloxy)ethyl]phenyl}-5-fluoro-2,4-pyrimidinediamine], for which the pIC50 is 4.26.

With `CNC(=O)OCCc1ccc(Nc2nc(Nc3cccc(S(N)(=O)=O)c3)ncc2F)cc1` [III-60, N2-(3-Aminosulfonylphenyl)-5-fluoro-N4-{4-[2-(methylaminocarbonyloxy)ethyl]phenyl}-2,4-pyrimidinediamine], the pIC50 is 4.59.

`NS(=O)(=O)c1ccc(Nc2ncc(F)c(Nc3ccc(Cc4ccncc4)cc3)n2)cc1` [III-71, N2-(4-Aminosulfonylphenyl)-5-fluoro-N4-[4-(4-pyridinylmethyl)phenyl]-2,4-pyrimidinediamine]: the pIC50 was 5.08.

Consider `NS(=O)(=O)c1cccc(Nc2ncc(F)c(NCCc3ccc(-n4ccnc4)cc3)n2)c1` [III-87, N2-(3-Aminosulfonylphenyl)-5-fluoro-N4-[4-(1-imidazolyl)phenethyl]-2,4-pyrimidinediamine], for which the pIC50 was 4.12.

On to `Cc1ccc(Nc2ncc(F)c(NCCc3ccc(-n4ccnc4)cc3)n2)cc1S(N)(=O)=O` [III-88, N2-(3-Aminosulfonyl-4-methylphenyl)-5-fluoro-N4-[4-(1-imidazolyl)phenethyl]-2,4-pyrimidinediamine], for which the negative logarithm of the IC50 (pIC50) was 4.97.

One may read the pIC50 as −log10 of the IC50, conventionally taken in molar units.

Source of the values: patent US11827628B2, “Compositions and methods for inhibition of the JAK pathway” (Rigel Pharmaceuticals, Inc., priority 2005, dated 2023).
